Legend:
[1] = tested on: PGE2 synthesis by 3T3 fibroblasts; experiment: Inhibition of PGE2 synthesis by 3T3 fibroblasts (ELISA); format: cell-based; settings: for [PGE2]: 24 h
Excerpt: This Example establishes the anti-inflammatory potential of GC-100 by measuring the inhibition of PGE2 synthesis by 3T3 fibroblasts in cell culture.
The cells are nourished in a medium enriched with arachidonic acid which leads to increased secretion of eicosanoids into the medium.
The formation of prostaglandin PGE2 will be followed as a marker of eicosanoid synthesis, because it is a stable molecule secreted preferentially by 3T3 fibroblasts. The anti-inflammatory potential of an active ingredient may then be investigated by following the decrease in secretion of PGE2 in the culture medium.
Quantification of PGE2 will be achieved using an enzyme-linked immunosorbant assay (ELISA). In principle, the PGE2 expressed by the cells in culture medium will compete with enzyme-linked PGE2 for available antibody, which is a constant. The concentration of enzyme-linked PGE2 is also constant and quantified prior to testing. The enzyme linked to PGE2 prior to testing is acetylcholinesterase. Since the quantity of PGE2 expressed by 3T3 cells in culture will vary based on the concentration of GC-100 present, the amount of antibody available to bind to the enzyme-linked PGE2 versus that produced by the 3T3 cells assumes an inverse relationship that is dependent on Brownian motion. After eliminating unreacted PGE2 through washing, substrate is added that binds to the enzyme-PGE2-antibody complex to generate a yellow color that is strongly evident using spectrophotometer set at 412 nm. The amount of light transmitted through the test sample is directly proportional to the intensity of the color change and, consequently, to the concentration of PGE2-enzyme-antibody complex.
Create a mother solution (solution #1) containing complete DMEM, alcohol, and 2×10^5 3T3 fibroblasts for plating onto 25 cm^2 culture dishes. Using a compounding dilution technique, prepare the following solutions, using 5 mL of media per plate: • Solution #2: Solution #1 plus arachidonic acid (10^−3% P/V) • Solution #3: Solution #2 plus indomethacin (0,1,10^−3% P/V) • Solution #4: Solution #2 plus GC-100 0.5% • Solution #5: Solution #2 plus GC-100 1.0%
Incubate all preparations for 24 hours at 37° C. Recover the supernatant media, and if needed deep freeze it at −20° C. before quantification. Count the number of surviving cells using a coulter counter. Establish a calibration curve of the quantity of PGE2. Quantify the supernatant media using an enzyme-linked immunosorbant assay kit specific for PGE2 (Cayman), using a Dynotech microplate reader (MR500) with a filter set at 412 nm. Calculate the % inhibition of PGE2 synthesis. The results are shown in Table 4 and FIG. 10, which is a graph showing mean suppression of PGE2 concentration in test media comprising indomethacin or GC-100.

photodamaged human skin = experiment: Pilot open label study on photoaged skin: epidermal thickness by high frequency ultrasound; format: in vivo; settings: for % change (epidermal thickness, ultrasound): range over panelists
Description: A pilot open label study was conducted to establish the efficacy of GC-100 on photoaged skin in a clinical setting.
Primary endpoints for this study were as follows: • 1. Epidermal skin thickness was measured using high frequency ultrasound. • 2. Panelists regard for their overall appearance and any changes noted in the appearance of their wrinkles, lentigines, facial acne and pore size were used in qualitative analysis. In addition, panelists were asked to comment on irritation, novel rashes, and other side effects during the study period.
An open label, six week pilot study to examiner the regenerative effect of GC-100 was performed on 15 women with mild to moderate dermatoheliosis as defined by clinical examination. Exclusion criteria selected against patients with a history of retinoic acid use, dermabrasion, or chemical peel application within 6 months prior to study onset. However, all patients had used one or more of these products previously. After appropriate informed consent was obtained, baseline measurements of epidermal thickness using high frequency untrasonography (20 MHz and above) were collected using skin at the infraorbital prominence. Three measurements were taken at each site and averaged to yield a result. GC-100 was applied to the face and neck according to the following schedule: • Weekly: GC-100 applied in mask vehicle • Twice daily: GC-100 applied through lotion vehicle
The patient population was divided into two groups, where Group I was evaluated after 24 hours of product application, and Group II was evaluated at the conclusion of weeks 2, 4 and 6. A panelist questionnaire was completed during each evaluation session.

[2] = DMEM + AA + 0.5% GC-100, column A
[3] = DMEM + AA + 0.5% GC-100, column B
[4] = DMEM + AA + 0.5% GC-100, column C
[5] = DMEM + AA + 1% GC-100, column A
[6] = DMEM + AA + 1% GC-100, column B
[7] = DMEM + AA + 1% GC-100, column C
[8] = Group I, evaluated after 24 hours of product application
[9] = Group II, evaluated at weeks 2, 4 and 6

H-Lys-Pro-NH2 [GC-100]
% change of PGE2 vs DMEM + AA, MEAN ([1]; DMEM + AA + 0.5% GC-100): −13% | % change of PGE2 vs DMEM + AA [1, 2]: −10.5% | [PGE2] [1, 2]: 2.81 pg/mL | % change of PGE2 vs DMEM + AA [1, 3]: −19.7% | [PGE2] [1, 3]: 2.41 pg/mL | % change of PGE2 vs DMEM + AA [1, 4]: −8.7% | [PGE2] [1, 4]: 2.62 pg/mL | % change of PGE2 vs DMEM + AA, MEAN ([1]; DMEM + AA + 1% GC-100): −23.9% | % change of PGE2 vs DMEM + AA [1, 5]: −23.9% | [PGE2] [1, 5]: 2.39 pg/mL | % change of PGE2 vs DMEM + AA [1, 6]: −27.7% | [PGE2] [1, 6]: 2.17 pg/mL | % change of PGE2 vs DMEM + AA [1, 7]: −20.2% | [PGE2] [1, 7]: 2.29 pg/mL | mean decrease of PGE2 expression below untreated control ([1]; GC-100 1%): 24% | Mean % (change in epidermal thickness) (photodamaged human skin; [8]): 8.5% | % change (epidermal thickness, ultrasound) (photodamaged human skin; [8]): 3.4-19.2% | Mean % (change in epidermal thickness) (photodamaged human skin; [9]): 7.95% | % change (epidermal thickness, ultrasound) (photodamaged human skin; [9]): 2.9-14% | stratum corneum compaction spongiosis, granular cell layer thickness and epidermal thickness vs baseline (photodamaged human skin; both treatment groups, high frequency ultrasound): significant increase over baseline | average increase in epidermal thickness (photodamaged human skin; six weeks after application): 8%

Reference: US11793746B2, “Intense skin hydration systems and methods” (priority 2020, dated 2023)
